In patent US10702504B2, “Degradation of tripartite motif-containing protein 24 (TRIM24) by conjugation of TRIM24 inhibitors with E3 ligase ligand and methods of use” (Dana-Farber Cancer Institute, Inc., priority 2016, dated 2020):

Legend:
[1] = molecular target: PHD-bromodomain of TRIM24 (Homo sapiens (Human), UniProt O15164); experiment: TRIM24 binding alpha assay; details: Alpha Assay binding to TRIM24; compounds 50 μM to 0.002 μM
Description: The alpha TRIM24 binding assay is used to assess the binding of the compounds of the application. Compounds are added at various concentrations as well as a vehicle control. Compounds that bind to TRIM24 compete away the interaction between the PHD-bromodomain of TRIM24 bound to the donor bead, and the H3K23ac histone peptide bound to the acceptor bead, which causes a decrease in signal. IC50 values are calculated.
The alpha assay was used to assess the binding of the compounds of the application to TRIM24 at various concentrations. All compounds were added at concentrations from 50 μM to 0.002 μM. Compounds that bind to TRIM24 compete with the PHD-bromodomain of TRIM24 in interacting with the donor bead, and the H3K23ac histone peptide bound to the acceptor bead, which causes a decrease in signal. IC50 values were calculated by using Graphpad PRISM's log(inhibitor) vs. response—variable slope (four parameters).

TRIM24 = TRIM24 (Homo sapiens (Human), UniProt O15164); experiment: Destabilization of TRIM24 over time in MCF7 cells (immunoblot); type: cell-based
Sequence of TRIM24 (O15164 whole entry): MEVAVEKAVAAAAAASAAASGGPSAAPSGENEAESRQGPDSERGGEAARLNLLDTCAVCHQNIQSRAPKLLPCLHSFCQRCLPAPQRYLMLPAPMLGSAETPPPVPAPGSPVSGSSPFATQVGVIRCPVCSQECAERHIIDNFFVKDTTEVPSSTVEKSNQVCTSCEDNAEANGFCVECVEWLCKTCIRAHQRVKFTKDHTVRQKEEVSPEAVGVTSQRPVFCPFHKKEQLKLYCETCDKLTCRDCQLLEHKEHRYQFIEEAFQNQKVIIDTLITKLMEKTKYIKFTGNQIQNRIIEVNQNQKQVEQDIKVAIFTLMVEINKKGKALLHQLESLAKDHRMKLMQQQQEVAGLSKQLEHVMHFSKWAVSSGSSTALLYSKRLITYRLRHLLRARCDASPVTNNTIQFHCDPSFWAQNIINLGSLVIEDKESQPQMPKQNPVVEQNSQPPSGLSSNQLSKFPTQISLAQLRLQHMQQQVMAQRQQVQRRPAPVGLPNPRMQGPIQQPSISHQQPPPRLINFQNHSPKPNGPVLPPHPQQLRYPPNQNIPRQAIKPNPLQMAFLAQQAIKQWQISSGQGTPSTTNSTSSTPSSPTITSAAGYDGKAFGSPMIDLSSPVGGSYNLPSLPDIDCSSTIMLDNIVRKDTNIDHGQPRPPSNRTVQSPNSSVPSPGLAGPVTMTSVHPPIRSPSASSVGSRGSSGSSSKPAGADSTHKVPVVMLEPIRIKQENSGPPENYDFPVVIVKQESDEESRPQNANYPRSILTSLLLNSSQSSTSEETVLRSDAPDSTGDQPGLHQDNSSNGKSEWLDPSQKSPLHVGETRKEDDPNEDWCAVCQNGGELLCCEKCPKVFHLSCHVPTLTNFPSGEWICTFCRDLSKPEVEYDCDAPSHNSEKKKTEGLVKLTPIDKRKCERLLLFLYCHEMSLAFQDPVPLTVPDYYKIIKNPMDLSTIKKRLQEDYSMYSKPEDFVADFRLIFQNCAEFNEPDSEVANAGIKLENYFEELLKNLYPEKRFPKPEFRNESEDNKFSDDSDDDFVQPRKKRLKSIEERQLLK
Description: Wild-type or cereblon null 293T cells, or MCF7 cells, were treated with compounds of the application. The cells were treated for 4 hours or 18 hours with representative compounds at a final concentration of 10 μM, 5 μM, or 0.5 μM, or with a vehicle control. Cells were harvested and lysed using RIPA buffer with Halt protease inhibitors and 0.1% benzonase on ice for 15 minutes. The amount of total protein was quantified using the BCA assay. Primary antibodies used were TRIM24 (Cell Signaling Technology) as well as actin (Santa Cruz). Blots were imaged using secondary antibodies (LI-COR) on the OdysseyCLxImager. Band intensities were quantified using the LI-COR software. TRIM24 signal was normalized to the actin loading control. The signal intensity of TRIM24 from cells treated with DMSO was set to 1, and all other treatment conditions were normalized to the DMSO condition per immunoblot to determine the level of TRIM24, which was expressed as a ratio to the TRIM24 level in the DMSO treated cells.
In addition. MCF7 cells were treated for 24, 48, and 72 hours with representative compounds of the application at 5 μM.

Sequence of PHD-bromodomain of TRIM24 (O15164 824-1006): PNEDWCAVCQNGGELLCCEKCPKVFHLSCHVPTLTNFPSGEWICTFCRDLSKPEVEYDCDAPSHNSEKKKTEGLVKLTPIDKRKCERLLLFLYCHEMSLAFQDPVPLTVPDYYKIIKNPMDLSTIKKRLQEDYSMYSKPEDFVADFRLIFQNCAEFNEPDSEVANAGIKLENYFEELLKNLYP

Q: CCCOc1cccc(Oc2cc3c(cc2NS(=O)(=O)c2cccc(C(=O)NCCOCCOCCOCC(=O)N[C@H](C(=O)N4C[C@H](O)C[C@H]4C(=O)NCc4ccc(-c5scnc5C)cc4)C(C)(C)C)c2)n(C)c(=O)n3C)c1 [I-B3, (2S,4R)-1-((S)-15-(tert-butyl)-1-(3-(N-(1,3-dimethyl-2-oxo-6-(3-propoxyphenoxy)-2,3-dihydro-1H-benzo[d]imidazol-5-yl)sulfamoyl)phenyl)-1,13-dioxo-5,8,11-trioxa-2,14-diazahexadecan-16-oyl)-4-hydroxy-N-(4-(4-methylthiazol-5-yl)benzyl)pyrrolidine-2-carboxamide] was tested. Which IC50 [1] did it give?
A: 0.05 to 0.1 µM

Q: What about the “level of TRIM24 compared to vehicle” value (TRIM24; 5 μM, 24, 48 and 72 hours) of the same compound?
A: significantly reduced

Q: What about the “decrease in the level of TRIM24 over time” value (TRIM24; 5 μM, 24 h to 72 h) of the same compound?
A: continued over a 24 h to 72 h period
